The data set in a line: Photochromic response of test square polymerizates on an optical bench. Format: physicochemical. Particulars: for ΔOD@ SATURATION: UV exposure continued for 20 minutes; for ΔOD@ SATURATION / ΔOD/MIN SENSITIVITY: test squares by method 1, 75°F (23.9°C); for ΔOD/MIN SENSITIVITY: measured over the first five (5) seconds of UV exposure, expressed on a per minute basis; for Bleach (T1/2): time for absorbance of the activated form to reach one half the highest absorbance at room temperature (75°F, 23.9°C) after removal of activating light, method 1; for LAMBDA MAX (VISIBLE): wavelength in the visible spectrum of maximum absorption of the activated (colored) form, diethylene glycol bis(allyl carbonate) composition. How it is done:
Testing was done with the photochromic naphthopyrans of the Examples incorporated or imbibed into test square polymerizates by one of two different methods. In Method I, the photochromic naphthopyrans of the Examples were incorporated into polymeric samples. The quantity of naphthopyran calculated to yield a 1.5 times 10^-3 molal solution was added to a flask containing 50 grams of a monomer blend of 4 parts ethoxylated bisphenol A dimethacrylate (BPA 2EO DMA), 1 part poly(ethyleneglycol) 600 dimethacrylate, and 0.033 weight percent 2,2'-azobis(2-methyl propionitrile) (AIBN). The naphthopyrans were dissolved into the monomer blend by stirring and gentle heating, if necessary. After a clear solution was obtained, it was poured into a flat sheet mold having the interior dimensions of 2.2 mm x 6 inches (15.24 cm) x 6 inches (15.24 cm). The mold was sealed and placed in a horizontal air flow, programmable oven set to increase the temperature from 40°C. to 95°C. over a 5 hour interval, hold the temperature at 95°C. for 3 hours and then lower it to 60°C. for at least 2 hours before the end of the curing cycle. After the molds were opened, the polymer sheets were cut using a diamond blade saw into 2 inch (5.1 centimeters) test squares.
In Method II, the photochromic naphthopyran was imbibed into test square polymerizates prepared from a diethylene glycol bis(allyl carbonate) composition. The test squares measured 1/8 inch (0.3 centimeters) x 2 inches (5.1 centimeters) x 2 inches (5.1 centimeters). In the imbibition process, the photochromic naphthopyran was dissolved to form a 10 weight percent solution in a 1:9 mixture of ethyl cellulose:toluene. The solution was then spin coated onto the test squares and allowed to dry. Samples were then heated in a hot-air oven at 135-155°C for a period of time sufficient to thermally transfer the photochromic into the test squares. […] After cooling, the ethyl cellulose/toluene resin film was removed from the test squares by washing with acetone.
The photochromic test squares were tested for photochromic response rates on an optical bench. Prior to testing on the optical bench, the photochromic test squares were exposed to 365 nanometer ultraviolet light for about 15 minutes to activate the photochromic compounds and then placed into a 76°C oven for about 15 minutes to bleach or inactivate the photochromic compounds. The test squares were then cooled to room temperature, exposed to fluorescent room lighting for at least 2 hours and then kept covered for at least 2 hours prior to testing on an optical bench maintained at 75°F (23.9°C). The bench was fitted with a 150 watt Xenon arc lamp, a remote controlled shutter, a copper sulfate bath acting as a heat sink for the arc lamp, a Schott WG-320 nm cut-off filter which removes short wavelength radiation; neutral density filter(s) and a sample holder in which the square to be tested was inserted. A collimated beam of light from a tungsten lamp was passed through the square at a small angle normal to the square. After passing through the square, the light from the tungsten lamp was directed through a photopic filter attached to a detector. The photopic filter passes wavelengths such that the detector mimics the response of the human eye. The output signals from the detector(s) were processed by a radiometer.
Change in optical density (ΔOD) was determined by inserting a test square in the bleached state into the sample holder, adjusting the transmittance scale to 100%, opening the shutter from the Xenon lamp to provide ultraviolet radiation to change the test square from the bleached state to an activated (i.e., darkened) state, measuring the transmittance in the activated state, and calculating the change in optical density according to the formula Δ OD=log(100/%Ta) where %Ta is the percent transmittance in the activated state and the logarithm is to the base 10. […]

Molecules are shown by their SMILES.

As to `COC(=O)c1c2c(c3ccccc3c1O)OC(c1ccccc1)(c1ccc(N3CCOCC3)cc1)C=C2` (stereo not drawn) [Example 1, 2-(4-morpholinophenyl)-2-phenyl-5-methoxycarbonyl-6-hydroxy-2H-naphtho[1,2-b]pyran], the “ΔOD@ SATURATION” value is recorded as 1.36, the “ΔOD/MIN SENSITIVITY” value amounted to 0.64, the “Bleach (T1/2)” value worked out at 3.22 min and the “LAMBDA MAX (VISIBLE)” value is reported as 511.

With `COC(=O)c1c2c(c3ccccc3c1OC)OC(c1ccccc1)(c1ccc(N3CCOCC3)cc1)C=C2` (stereo not drawn) [Example 2, 2-(4-morpholinophenyl)-2-phenyl-5-methoxycarbonyl-6-methoxy-2H-naphtho[1,2-b]pyran], the “ΔOD@ SATURATION” value stood at 0.95, the “ΔOD/MIN SENSITIVITY” value is reported as 0.29, the “Bleach (T1/2)” value is 4.87 min and the “LAMBDA MAX (VISIBLE)” value is listed as 541.

For `COC(=O)c1c2c(c3ccccc3c1OC(C)=O)OC(c1ccccc1)(c1ccc(N3CCOCC3)cc1)C=C2` (stereo not drawn) [Example 3, 2-(4-morpholinophenyl)-2-phenyl-5-methoxycarbonyl-6-acetoxy-2H-naphtho[1,2-b]pyran], the “ΔOD@ SATURATION” value was determined as 0.31, the “ΔOD/MIN SENSITIVITY” value was 0.24, the “Bleach (T1/2)” value is 1.47 min and the “LAMBDA MAX (VISIBLE)” value came out at 545.

Take `COC(=O)c1c2c(c3ccccc3c1OC(C)=O)OC(c1ccccc1)(c1ccc(N(C)C)cc1)C=C2` (stereo not drawn) [Example 4, 2-(4-dimethylaminophenyl)-2-phenyl-5-methoxycarbonyl-6-acetoxy-2H-naphtho[1,2-b]pyran]: the “ΔOD@ SATURATION” value is 0.30, the “ΔOD/MIN SENSITIVITY” value is recorded as 0.27, the “Bleach (T1/2)” value stood at 1.17 min and the “LAMBDA MAX (VISIBLE)” value worked out at 591.

For the compound `COC(=O)c1c2c(c3ccccc3c1C)OC(c1ccccc1)(c1ccc(N(C)C)cc1)C=C2` (stereo not drawn) [Example 5, 2-(4-dimethylaminophenyl)-2-phenyl-5-methoxycarbonyl-6-methyl-2H-naphtho[1,2-b]pyran], the “ΔOD@ SATURATION” value turned out to be 0.51, the “ΔOD/MIN SENSITIVITY” value is 0.20, the “Bleach (T1/2)” value worked out at 3.33 min and the “LAMBDA MAX (VISIBLE)” value is given as 584.

On to `COC(=O)c1c2c(c3ccccc3c1OC(C)=O)OC(c1ccc(N(C)C)cc1)(c1ccc(N(C)C)cc1)C=C2` [Example 6, 2,2-bis(4-dimethylaminophenyl)-5-methoxycarbonyl-6-acetoxy-2H-naphtho[1,2-b]pyran], for which the “ΔOD@ SATURATION” value is 0.07, the “ΔOD/MIN SENSITIVITY” value came to 0.16, the “Bleach (T1/2)” value is 0.317 min and the “LAMBDA MAX (VISIBLE)” value worked out at 618.

Source of the values: EP1000025B1, “SUBSTITUTED NAPHTHOPYRANS” (TRANSITIONS OPTICAL, INC., priority 1997, dated 1998).
